# Reference: BindingDB's records for doi:10.1021/jm5006226 (Bristol Myers Squibb, 2014)
# Assay: Antagonist activity at P2Y1 receptor in platelet-enriched human plasma assessed as 10 uM ADP-induced platelet aggregation preincubated for 1 min followed by ADP induction measured at 5 mins by aggregometric analysis
row,SMILES,IC50
1,CC(C)(C)CN1CCC2(CC1)CN(c1ccccc1NC(=O)Nc1nc3ccc(Cl)nc3s1)c1c(O)ccc(Cl)c12,0.13 µM
2,CC(C)(C)CN1CCC2(CC1)CN(c1ccccc1NC(=O)Nc1nc3ccc(Cl)nc3s1)c1c(O)cc(F)c(-c3ccc(F)cc3)c12,0.18 µM
3,CC1(C)CN(c2ccccc2NC(=O)Nc2ccc(OC(F)(F)F)cc2)c2c(O)cc(F)c(-c3ccc(Cl)cc3)c21,0.24 µM
4,CC1(C)CN(c2ccccc2NC(=O)Nc2ccc(OC(F)(F)F)cc2)c2c(O)cc(F)c(-c3ncc(F)cn3)c21,0.95 µM
5,CC(C)(C)CN1CCC2(CC1)CN(c1ccccc1NC(=O)Nc1ccc(OC(F)(F)F)cc1)c1c(O)cc(F)c(-c3ccc(Cl)cc3)c12,0.2 µM
6,CC(C)(C)CN1CCC2(CC1)CN(c1ccccc1NC(=O)Nc1ccc(OC(F)(F)F)cc1)c1c(O)cc(F)c(-c3ccc(F)cc3)c12,0.14 µM
7,CC1(C)CN(c2ccccc2NC(=O)Nc2nc3ccc(Cl)nc3s2)c2c(O)ccc(Cl)c21,1.4 µM
8,CC1(C)CN(c2ccccc2NC(=O)Nc2ccc(OC(F)(F)F)cc2)c2c(O)ccc(Cl)c21,0.87 µM
9,CC1(CC(F)(F)F)CN(c2ccccc2NC(=O)Nc2ccc(OC(F)(F)F)cc2)c2c(O)ccc(Cl)c21 (stereo not drawn),2.9 µM
10,CCOC(=O)C1(C)CN(c2ccccc2NC(=O)Nc2ccc(OC(F)(F)F)cc2)c2c(O)ccc(Cl)c21 (stereo not drawn),3.1 µM
11,CCOC(=O)C1(C)CN(c2ccccc2NC(=O)Nc2nc3ccc(Cl)nc3s2)c2c(O)ccc(Cl)c21 (stereo not drawn),0.61 µM
12,CC1(C)CN(c2ccccc2NC(=O)Nc2ccc(OC(F)(F)F)cc2)c2c(O)ccc(-c3cccc(F)c3)c21,0.24 µM
13,CC1(C)CN(c2ccccc2NC(=O)Nc2ccc(OC(F)(F)F)cc2)c2c(O)ccc(-c3ccc(Cl)cc3)c21,0.21 µM
14,CC1(C)CN(c2ccccc2NC(=O)Nc2ccc(OC(F)(F)F)cc2)c2c(O)ccc(-c3ccc(C(F)(F)F)cc3)c21,0.23 µM
15,CC1(C)CN(c2ccccc2NC(=O)Nc2ccc(OC(F)(F)F)cc2)c2c(O)ccc(-c3ccc(F)c(F)c3)c21,0.4 µM
16,CC1(C)CN(c2ccccc2NC(=O)Nc2ccc(OC(F)(F)F)cc2)c2c(O)ccc(-c3cc(F)cc(F)c3)c21,0.18 µM
17,CC1(C)CN(c2ccccc2NC(=O)Nc2nc3ccc(Cl)nc3s2)c2c(O)ccc(-c3ccc(F)cc3)c21,0.23 µM
18,Cc1nc(NC(=O)Nc2ccccc2N2CC(C)(C)c3c(-c4ccc(F)cc4)ccc(O)c32)cs1,0.43 µM
19,CC1(C)CN(c2ccccc2NC(=O)Nc2ccc(OC(F)(F)F)cc2)c2c(O)cc(F)c(-c3ccc(F)cc3)c21,0.19 µM
20,CC1(C)CN(c2ccccc2NC(=O)Nc2ccc(OC(F)(F)F)cc2)c2c(O)c(F)cc(-c3ccc(F)cc3)c21,0.39 µM
21,CC1(C)CN(c2ccccc2NC(=O)Nc2ccc(OC(F)(F)F)cc2)c2c(O)c(F)cc(-c3ccc(Cl)cc3)c21,0.3 µM
22,CC1(C)CN(c2ccccc2NC(=O)Nc2ccc(OC(F)(F)F)cc2)c2c(O)cc(F)c(-c3cnc(Cl)cn3)c21,0.26 µM

# Second part, the compound after the results:
row,IC50,SMILES
1,0.13 µM,CC1(C)CN(c2ccccc2NC(=O)Nc2ccc(OC(F)(F)F)cc2)c2c(O)cc(F)c(-c3ccc(Cl)s3)c21
2,0.11 µM,CC1(C)CN(c2ccccc2NC(=O)Nc2ccc(OC(F)(F)F)cc2)c2c(O)cc(F)c(-c3ccc(C(F)(F)F)cn3)c21
3,0.15 µM,CC1(C)CN(c2ccccc2NC(=O)Nc2ccc(OC(F)(F)F)cc2)c2c(O)cc(F)c(-c3ccc(C(F)(F)F)nc3)c21
4,0.16 µM,CC1(C)CN(c2ccccc2NC(=O)Nc2ccc(OC(F)(F)F)cc2)c2c(O)cc(F)c(-c3cc(F)nc(F)c3)c21
5,0.18 µM,CC1(C)CN(c2ccccc2NC(=O)Nc2ccc(OC(F)(F)F)cc2)c2c(O)ccc(-c3ccccc3)c21
6,0.08 µM,CC1(C)CN(c2ccccc2NC(=O)Nc2ccc(OC(F)(F)F)cc2)c2c(O)ccc(-c3ccccc3F)c21
7,0.16 µM,CC1(C)CN(c2ccccc2NC(=O)Nc2ccc(OC(F)(F)F)cc2)c2c(O)ccc(-c3ccc(F)cc3)c21
8,0.16 µM,CC1(C)CN(c2ccccc2NC(=O)Nc2ccc(OC(F)(F)F)cc2)c2c(O)ccc(-c3ccc(F)cc3F)c21
9,0.09 µM,CC1(C)CN(c2ccccc2NC(=O)Nc2csc(Cl)n2)c2c(O)ccc(-c3ccc(F)cc3)c21
10,0.05 µM,CC(C)CN1CCCC1c1ccc(NC(=O)Nc2ccccc2N2CC(C)(C)c3c(-c4ccc(F)cc4)ccc(O)c32)cc1 (stereo not drawn)
11,0.09 µM,CC(C)(C)CN1CCCC1c1ccc(NC(=O)Nc2ccccc2N2CC(C)(C)c3c(-c4ccc(F)cc4)ccc(O)c32)cc1 (stereo not drawn)
